The subject of one data set is pERK. Briefly: Immunohistochemical staining of rat retina, pERK. The conditions noted are these: lasered rat retinas. Type of data set: in vivo. From the text:
Rat choroidal laser injury model. Male Brown Norway pigmented rats (8-14 week-old) were anesthetized by an intramuscular injection of Rompun® (xylazine)/Imalgene® (ketamine). Pupils were dilated by instillation of one drop of 0.5% tropicamide before laser burn. Six burns were created in both eyes on Day 0 by applying 170 mW of 532 nm laser light (Viridis laser, Quantel, France) on 75 μm spots around the optic nerve, between the main retinal vessel branches, for 0.1s, through the slit lamp and contact lens. Production of a bubble at the time of laser application confirmed the rupture of Bruch's membrane. […] After anaesthesia, 10% sodium fluorescein (250 μl/100 g body weight) was injected subcutaneously, and ocular fluorescence was recorded 10 min after dye injection. Fluorescein leakage was evaluated on Days 14 and 21 in the angiograms by two examiners masked to the study groups and graded for fluorescein intensity as follows: score 0: no leakage; 1: slightly stained; 2: moderately stained; 3: strongly stained.
Immunohistochemical staining of rat retina. […] IOD of positive staining (red chromogen) was assessed for CD31, VEGF-A165, pERK, FosB and VCAM-1 using Image-Pro Plus software (Cybernetics, Bethesda, MD). IOD in IPL and INL was quantified for CD31; OPL to OS for VEGF-A165; INL to ONL for pERK; GCL to OS for FosB; OLM for VCAM-1, using Image-Pro Plus. […]

For the next data set, the system named is Balb/c mice. Briefly: Collagen antibody-induced arthritis (footpad thickness, H&E, micro-CT, TRAP). The format is in vivo, mouse. The conditions noted are these: CAIA mice. The method, then:
Collagen antibody-induced arthritis. Arthritis was induced in female Balb/c mice (6-8 week-old) as previously described with a commercially obtained cocktail of 5 monoclonal antibodies to type II collagen at 2 mg/mouse (Chondrex, Inc. Redmond, WA) followed by LPS (50 μg/mouse) with or without BT2 (3 or 30 mg/kg mouse) in DMSO vehicle was administered i.p. on Day 3. Hind footpad thickness was measured on Day 9 using digital calipers. Mice were sacrificed on Day 14 and microCT scanning of hind limbs was performed.
Micro-CT scanning and analysis. Formalin-ethanol fixed hind limbs were micro-CT scanned prior to histology processing using a Siemens Inveon micro-CT scanner (Victoria, Australia). Data was acquired with the Inveon Acquisition Workplace at 16.84 μm pixel size, 360 projections, 4100 ms integration time, 80 keV photon energy and 140 μA current. 3D models were visualized and snap shots of the limbs acquired with the Inveon Research Workplace software. Data was quantified by binary score where 0=no bone destruction and 1=destruction was given to each individual limb.
Tartrate-resistant acid phosphatase (TRAP) staining. Osteoclasts were stained using TRAP kit (Cosmo Bio, Japan, cat. PMC-AK04F-COS). Sections were heated at 65° C. for 1 h prior dewaxing. Tissue sections were deparaffinised with 100% xylene and rehydrated with 100, 70 and 30% ethanol and rinsed with distilled water for 5 min. Sections were covered with TRAP staining solution containing 3 mg tartaric acid per 50 ml tartaric acid buffer. The sections were incubated at 37° C. for 1 h, then rinsed in distilled water 3 times to halt the reaction. Sections were counterstained with hematoxylin for 5s then washed in running water until clear then dried. Sections were dehydrated with xylene and air-dried then mounted with aqueous permanent mounting medium. Within the synovium on the medial aspect of each animal joint, 6 random areas photographed under 20× objective were selected in the blinded fashion. Numbers of osteoclasts were counted using NIH Image J. Alternatively TRAP staining was quantitated using IOD (Image-Pro Plus).

The nature of data set [1]: GLP ocular pharmacokinetics study, single intravitreal injection. Type of data set: in vivo. The conditions noted are these: rabbit, eye, other: intravitreal injection; rabbits; single intravitreal injection 10 μg/50 μl; read-out: ocular half-life (t1/2) (converted).

In the case of `CCOC(=O)Nc1ccc2c(c1)C(=O)N(CC)c1ccccc1O2` [BT2, (10-ethyl-11-oxo-10,11-dihydro-dibenzo[b,f][1,4]oxazepin-2-yl)-carbamic acid ethyl ester], the “inducible pERK staining in the INL, OPL and ONL” value with pERK is on record as “suppressed inducible pERK staining”. In the data set with Balb/c mice (Day 14), the “TRAP staining in the joints” value was “reduced TRAP staining”, the “bone destruction (3D micro-CT of hind limbs)” value is “inhibits bone destruction” and the “inflammation (H&E staining)” value is recorded as “reduced by BT2”. Further, the hind footpad thickness result in the data set with Balb/c mice (single administration 30 mg/kg i.p. Day 3, Day 9) is on record as “inhibited”. Further, the half-life in data set [1] is 79.2 h.

These data come from patent publication US20260102407A1, “TREATMENT METHODS” (priority 2020, published 2026).
